# Results published in PMC13206195, “Low‐dose cannabidiol increases plasma concentrations of amitriptyline: A clinical drug–drug interaction study” (British Journal of Clinical Pharmacology, 2025).
# What was measured:
# CYP2D6 = conditions: cited from earlier work
# [1] = Plasma pharmacokinetics (non-compartmental analysis) in open-label, fixed-sequence, 2-way crossover study in healthy participants; conditions: fasted, plasma; for AUC(0-t) / Cmax: human, in vivo, po; for AUC(0-t): AUClast
# Description: (§1) This study was an open‐label, fixed sequence, 2‐way crossover study in 13 healthy participants. On Day 1, 25 mg amitriptyline and 50 mg tramadol were orally administered concurrently, followed by a wash‐out period of at least 7 days. On Day 8, 30 mg of oral CBD oil was administered 1 h prior to amitriptyline and tramadol. On Days 1 and 8, participants presented to the clinical research unit in the morning and were discharged in the evening, briefly returning in the morning of Days 2 and 9 for pharmacokinetic sampling.
# The cannabidiol formulation used in this study was Clinican®, an almond oil‐based formulation containing 10% cannabidiol and manufactured by Clinical Cannabis Care (Breukelen, the Netherlands) and administered orally with 240 mL of water following an overnight fast. Single doses of 30 mg CBD were administered. […] Furthermore, we estimated that the 30 mg CBD dose is at the upper end of the range of CBD intake of patients who use CBD‐rich varieties of medicinal cannabis (or formulations containing THC and CBD, like Sativex®) for treatment of neuropathic pain symptoms,[23] and as well as an approximately median dose for OTC CBD users. Cannabidiol was administered one hour prior to amitriptyline and tramadol (during visit 2 only) to offset the slower absorption expected from an oil‐based cannabinoid formulation, compared to the victim drugs.
# Generic oral formulations of tramadol (50 mg tramadol hydrochloride capsule) and amitriptyline (25 mg hydrochloride tablet) were used in this study. These doses were at the low end of the therapeutic range, allowing for a safety margin for possible increases in plasma concentrations when co‐administered with CBD. Tramadol and amitriptyline were not known to induce or inhibit CYP‐enzymes in general, and no specific pharmacokinetic interactions between the two victim drugs were known to the investigators. […] However, this risk was deemed clinically irrelevant when low, single doses were administered to healthy volunteers. Based on these consideration regarding pharmacokinetics and safety, the two victim drugs were administered together in a cocktail design.
# Sampling for pharmacokinetics was performed pre‐dose and at 1, 2, 3, 4, 5, 6, 8, 12 and 24 h following the administration of amitriptyline and tramadol. Approximately 4 mL blood was collected via an i.v. catheter placed in an antecubital vein in the arm in polypropylene K2EDTA tubes. Following collection, samples were immediately cooled on ice. Within 30 min of collection, plasma was separated by centrifugation at approximately 2000 g for 10 min and promptly transferred into amber glass vials and stored at […]. The samples were analysed by the iC42 Laboratory (Department of Anesthesiology, University of Colorado, Aurora, Colorado, USA). CBD and CBD metabolites were analysed using a validated assay that was previously published (CBD metabolite concentrations not reported in this manuscript).[33] Concentrations of amitriptyline, nortriptyline, tramadol and O‐desmethyltramadol were determined using a validated assay that was based on a previously published high‐performance liquid chromatography tandem mass spectrometry (HPLC‐MS/MS) method.[34] Details regarding the bioanalytical assays used to measure CBD, amitriptyline, nortriptyline, tramadol and O‐desmethyltramadol are located in the Supplementary Materials section.
# R 3.6.1 for Windows (R Foundation for Statistical Computing/R development Core Team, Vienna, Austria, 2019), PKNCA package version 0.9.5, was used to calculate pharmacokinetic parameters. PK parameter calculations were based on actual sampling time.
# CYP3A4 and CYP2B6 = conditions: cited from earlier work
# [2] = cited from earlier work
# [3] = Comparison of PK parameters between visits (with vs without CBD) by mixed effects model ANOVA; conditions: for AUC(0-t) / Cmax: human, in vivo
# Description: as §1
# To establish whether significant treatment effects could be detected, the PK parameters were compared with a mixed effects model analysis of variance (ANOVA) with treatment as a fixed factor and participants as a random factor on log‐transformed data. The general treatment effect and specific contrasts were reported with the estimated difference and the 95% confidence interval, the least square mean estimates and the p‐value. All calculations were performed using SAS for Windows V9.4 (SAS Institute, Inc., Cary, NC, USA).
# [4] = Visit 1 (Day 1): 25 mg amitriptyline + 50 mg tramadol oral, no CBD, N=13
# [5] = Visit 2 (Day 8): 30 mg CBD oral 1 h prior to 25 mg amitriptyline + 50 mg tramadol, N=12
# [6] = Geometric mean, Visit 1 (Day 1): 25 mg amitriptyline + 50 mg tramadol oral, no CBD, N=13
# [7] = Geometric mean, Visit 2 (Day 8): 30 mg CBD oral 1 h prior to 25 mg amitriptyline + 50 mg tramadol, N=12
# [8] = Mean, Visit 1 (Day 1): 25 mg amitriptyline + 50 mg tramadol oral, no CBD, N=13
# [9] = Mean, Visit 2 (Day 8): 30 mg CBD oral 1 h prior to 25 mg amitriptyline + 50 mg tramadol, N=12
# [10] = Median, Visit 1 (Day 1): 25 mg amitriptyline + 50 mg tramadol oral, no CBD, N=13
# [11] = Median, Visit 2 (Day 8): 30 mg CBD oral 1 h prior to 25 mg amitriptyline + 50 mg tramadol, N=12
# [12] = Visit 2 (with 30 mg CBD) vs Visit 1 (without CBD)
smiles,measurement,setting,value
COc1cccc(C2(O)CCCCC2CN(C)C)c1 (centres unmarked) [Tramadol],proportion of tramadol converted into O‐desmethyltramadol (O‐DSMT) by CYP2D6,CYP2D6,approximately 80%
same,"Clast, Geometric mean",[1]; [4],7.4 ng/mL
same,"Clast, Mean",[1]; [4],8.9 ng/mL
same,"Clast, Median",[1]; [4],8.4 ng/mL
same,"tlag, Median",[1]; [4],0.0 h
same,"Clast, Geometric mean",[1]; [5],6.8 ng/mL
same,"Clast, Mean",[1]; [5],8.7 ng/mL
same,"Clast, Median",[1]; [5],8.0 ng/mL
same,"tlag, Median",[1]; [5],0.0 h
same,AUC(0-t),[1]; [6],1130 ng·h/mL
same,AUC(0-t),[1]; [7],1150 ng·h/mL
same,AUC(0-t),[1]; [8],1170 ng·h/mL
same,AUC(0-t),[1]; [9],1210 ng·h/mL
same,AUC(0-t),[1]; [10],1240 ng·h/mL
same,AUC(0-t),[1]; [11],1160 ng·h/mL
same,Cmax,[1]; [6],137 ng/mL
same,Cmax,[1]; [7],150 ng/mL
same,Cmax,[1]; [8],141 ng/mL
same,Cmax,[1]; [9],153 ng/mL
same,Cmax,[1]; [10],135 ng/mL
same,Cmax,[1]; [11],155 ng/mL
same,proportion of tramadol converted into N‐desmethyltramadol (N‐DSMT) by CYP3A4 and CYP2B6,CYP3A4 and CYP2B6,approximately 20%
same,terminal half‐life,[2],5 to 6 h
same,"Clast, back transformed LSM Visit 1","[3]; Visit 1: without CBD, mixed effects model on log-transformed data",7.41
same,"AUClast, Ratio of LSMs",[3]; [12],1.04
same,"Clast, Ratio of LSMs",[3]; [12],0.97
same,"Cmax, Ratio of LSMs",[3]; [12],1.10
same,"Clast, back transformed LSM Visit 2","[3]; Visit 2: with 30 mg CBD, mixed effects model on log-transformed data",7.16
same,AUC(0-t),[3],1130 ng·h/mL
same,Cmax,[3],137 ng/mL
same,AUC(0-t),[3]; 30 mg,1180 ng·h/mL
same,Cmax,[3]; 30 mg,151 ng/mL
